Values of other authors, collected in patent publication US20240000880A1, “A PHARMACEUTICAL COMPOSITION FOR PREVENTING AND TREATING LUNG INJURY, A PREPARATION METHOD THEREFOR AND A USE THEREOF” (priority 2020, published 2024).

Test system: rats with chronic obstructive pulmonary disease
Details: rats with COPD; previous studies

## Oc1ccc(C=Cc2cc(O)cc(O)c2)cc1 [resveratrol]
  antioxidant efficacy on chronic obstructive pulmonary disease: has antioxidant efficacy
  lung function: can improve lung function to some extent
